Data published in patent US20230270713A1, “Administration of Resiniferatoxin For Treatment of Bladder Pain or Bladder Cancer” (Sorrento Therapeutics, Inc., priority 2020, published 2023).

Key:
[1] = tested on: CGRP and SP afferent nerve fibers (TRPV1 axons) innervating the cat bladder; assay: Density of CGRP and SP afferent nerve fibers in cat bladder (IHC, confocal); assay type: in vivo
Method: To examine the effect of intravesical instillation of RTX on the bladder, 6 healthy cats, between the 2-5 years of age, were treated with either 5 (low dose), 25 (mid dose) or 50 mcg (high dose) of RTX (volume was 25 ml; concentrations were 0.2, 1, and 2 mcg/ml). These doses are considered equivalent to administration of 20, 100, or 200 mcg in a human with a volume of 100 ml. A seventh cat received saline only and served as the control. The bladders of the anesthetized cats were emptied and then flushed with sterile saline via a foley urinary catheter. Once the saline was removed, the treatment with RTX (test cats) or saline alone (control cat) was administered over 60 seconds and left in the bladder for 20 minutes.
At day 14 the cats were anesthetized and perfused with saline followed by 10% formalin. After confirmation of successful euthanasia, lumbar and sacral segments of the spinal cord with corresponding dorsal spinal ganglia, the urinary bladder and urethra were harvested and tissues were prepared for immunohistochemistry.
Previous studies have shown that TRPV1-immunoreactive axons co-express Calcitonin gene-related peptide (CGRP) and substance P (SP) (See, e.g., Sharrad et al. (2015) Neurosci. Lett., 599: 164-171; Bae et al. (2004) J. Comp. Neurol. 478: 62-71). Since feline bladder connective tissue, smooth muscle, and cell bodies of S2 DRG express CGRP+ and SP+ axons, expression of CGRP and SP were used in these studies to identify the majority of TRPV1 axons innervating the cat bladder and TRPV1+ cell bodies in cat S2 dorsal root ganglia (DRG).

[2] = Local tolerance and clinical observations after intravesical RTX in dogs; assay type: in vivo, dog; details: single 25 or 250 mcg intravesical
Method: Local tolerance and the pharmacokinetic (PK), and toxicokinetic (TK) profile of RTX in dogs was determined after a single instillation of RTX into the bladder of dogs (n=6). The RTX formulations were prepared using aseptic techniques in a biological safety cabinet (BSC) by mixing the appropriate amount of diluent with the appropriate amount of RTX. Dosing formulation concentrations used were 1 and 10 mcg/mL.
RTX was administered via intravesical instillation into the urinary bladder. The animals were given a single dose of 25 or 250 mcg/dose in a total volume of 25 mL on Day 1 over a period of 1 hour (±5 minutes). RTX and diluent were administered to the dogs under general anesthesia via a Foley catheter placed into the bladder for 1 hour (±5 minutes).
Observations for morbidity, mortality, injury, and the availability of food and water were conducted twice daily for all animals. Observations for clinical signs for all animals were conducted on Day 2. The observations included evaluation of the skin, fur, eyes, ears, nose, oral cavity, thorax, abdomen, external genitalia, limbs and feet, respiratory and circulatory effects, autonomic effects such as salivation, and nervous system effects including tremors, convulsions, reactivity to handling, and unusual behavior.

C=C(C)[C@]12C[C@@H](C)[C@@]34O[C@](Cc5ccccc5)(O[C@@H]1[C@@H]3C=C(COC(=O)Cc1ccc(O)c(OC)c1)C[C@]1(O)C(=O)C(C)=C[C@@H]41)O2 [RTX, resiniferatoxin]
density of CGRP and SP axons innervating cat bladder body ([1]; 5, 25 and 50 mcg single administration, 14 days post-treatment, vs saline): reduced | density of CGRP or SP fibers in cat bladder ([1]; 5 mcg RTX in 25 ml saline): modest reduction | density of CGRP and SP-immunoreactive axons innervating cat bladder body ([1]; 25 and 50 mcg, day 14, vs control saline): decreased | ablation of afferent nerves ([1]; 25 mcg and 50 mcg in 25 ml saline): effective at ablating afferent nerves | density of CGRP and SP fibers in body, trigon and fundus ([1]; 25 or 50 mcg in 25 ml saline, vs control): more significant reduction | Tolerability, detailed clinical observations, body weight [2]: well tolerated and did not result in any detailed clinical observations or changes in body weight
